Type in all cases: in vivo
In experiment [1] the test system is larvae of the army worm (Spodoptera frugiperda). Put plainly: Spodoptera frugiperda larvae test (sprayed cabbage leaves). The settings on record: single active compound. The text has this:
(§1) The expected action for a given combination of two active compounds can be calculated as follows, according to S. R. Colby, Weeds 15 (1967), 20-22:
(§2) • X is the kill rate, expressed as a percentage of the untreated control, when employing active compound A at an application rate of m g/ha or in a concentration of m ppm, • Y is the kill rate, expressed as a percentage of the untreated control, when employing active compound B at an application rate of n g/ha or in a concentration of n ppm and • E is the kill rate, expressed as a percentage of the untreated control, when employing active compounds A and B at application rates of m and n g/ha or in a concentration of m and n ppm, then
(§3) If the actual kill rate exceeds the calculated value, the kill of the combination is superadditive, i.e. a synergistic effect is present. In this case, the actually observed kill rate must exceed the value calculated using the above formula for the expected kill rate (E).
Spodoptera frugiperda Larvae Test
(§4) Solvents: 78 parts by weight of acetone • • 1.5 parts by weight of dimethylformamide Emulsifier: 0.5 part by weight of alkylaryl polyglycol ether
(§5) To produce a suitable preparation of active compound, 1 part by weight of active compound is mixed with the stated amounts of solvents and emulsifier, and the concentrate is diluted with emulsifier-containing water to the desired concentration.
Cabbage leaves (Brassica oleracea) are treated by spraying with the active compound preparation of the desired concentration and are populated with larvae of the army worm (Spodoptera frugiperda) while the leaves are still moist.
After the desired period of time, the kill in % is determined. 100% means that all caterpillars have been killed; 0% means that none of the caterpillars have been killed. The kill rates determined are entered into Colby's formula.

Experiment [2] has as its system greenhouse red spider mite (Tetranychus urticae). Nature of the experiment: Tetranychus test, OP-resistant/spray treatment (bean leaf disks). The settings on record: 0.16 g/ha, single active compound.
Source text: as §1, §2, §3
OP-Resistant/Spray Treatment
as §4, §5
Disks of bean leaves (Phaseolus vulgaris) which are infested by all stages of the greenhouse red spider mite (Tetranychus urticae) are sprayed with an active compound preparation of the desired concentration.
After the desired period of time, the activity in % is determined. 100% means that all spider mites have been killed; 0% means that none of the spider mites have been killed.

In experiment [3] the test system is green peach aphid (Myzus persicae). Nature of the experiment: Myzus persicae test (spray treatment of infested cabbage leaves). The settings on record: single active compound.
Source text: as §1, §2, §3, §4, §5
Cabbage leaves (Brassica oleracea) which are heavily infested by the green peach aphid (Myzus persicae) are treated by spraying with the active compound preparation of the desired concentration.
After the desired period of time, the kill in % is determined. 100% means that all aphids have been killed; 0% means that none of the aphids have been killed. The kill rates determined are entered into Colby's formula.

Experiment [4] has as its system larvae of the mustard beetle (Phaedon cochleariae). Nature of the experiment: Phaedon cochleariae larvae test (sprayed cabbage leaves). The settings on record: 100 g/ha, single active compound.
Source text: as §1, §2, §3
Phaedon cochleariae Larvae Test
as §4, §5
Cabbage leaves (Brassica oleracea) are treated by spraying with the active compound preparation of the desired concentration and are populated with larvae of the mustard beetle (Phaedon cochleariae) while the leaves are still moist.
After the desired period of time, the kill in % is determined. 100% means that all beetle larvae have been killed; 0% means that none of the beetle larvae have been killed. The kill rates determined are entered into Colby's formula.

For the compound `Cc1ccc(/N=C/N(C)/C=N/c2ccc(C)cc2C)c(C)c1` [amitraz], in experiment [1] (20 g/ha), the “Kill in % after 2d” value is 0%. Also, the “Kill in % after 6d” value in experiment [2] is 0%.
With `CCOC(=O)OC1=C(c2cc(C)ccc2C)C(=O)N[C@]12CC[C@@H](OC)CC2` [compound (II)], the “Kill in % after 1d” value in experiment [3] (0.8 g/ha), in experiment [3] (4 g/ha) and in experiment [3] (20 g/ha) was 0% each time. Besides, the “Kill in % after 2d” value in experiment [4] is 0%; in experiment [1] (20 g/ha) it was 17%. Besides, in experiment [2], the “Kill in % after 6d” value came to 10%.
As to `CC(C)N1C(=O)N(c2ccccc2)CS/C1=N\C(C)(C)C` [buprofezin], in experiment [4], the “Kill in % after 2d” value came to 0%.
As to `CCOC(=O)OC1=C(c2cc(C)ccc2C)C(=O)NC12CCC(OC)CC2` (centres unmarked) [compound (IIa)], the “Kill in % after 1d” value in experiment [3] (0.8 g/ha), in experiment [3] (4 g/ha) and in experiment [3] (20 g/ha) was 0% each time. Moreover, the “Kill in % after 2d” value is 0% in experiment [4] and 17% in experiment [1] (20 g/ha). The “Kill in % after 6d” value in experiment [2] is given as 10%.
Take `CC1=NNC(=O)N(/N=C/c2cccnc2)C1` [pymetrozine]: the “Kill in % after 1d” value in experiment [3] (0.8 g/ha) worked out at 40%.
In the case of `N#CCNC(=O)c1cnccc1C(F)(F)F` [flonicamid], in experiment [3] (100 g/ha), the “Kill in % after 1d” value was 30%. In addition, the “Kill in % after 2d” value in experiment [4] stood at 0%.
For `CC(COc1ccc(Oc2ccccc2)cc1)Oc1ccccn1` (centres unmarked) [pyriproxifen, pyriproxyfen], in experiment [3] (100 g/ha), the “Kill in % after 1d” value is 0%. Moreover, the “Kill in % after 2d” value in experiment [1] (100 g/ha) is listed as 0%.

The record behind these values is patent US20110053919A1, “Active Compound Combinations Having Insecticidal and Acaricidal Properties” (BAYER CROPSCIENE AG, priority 2006, published 2011).
